The values below come from US20240299358A1, “COMPOSITIONS AND METHODS FOR DIAGNOSIS AND TREATMENT OF AUTOIMMUNE DISEASES” (DUKE UNIVERSITY, priority 2021, published 2024).

The test system of one assay is eHsp90. The assay can be described thus: In vivo imaging of eHsp90 expression in T cell transfer mouse model of IBD. To be noted: 10 nmoles IV. The procedure:
The T cell transfer model of IBD was utilized to evaluate the imaging potential of HS-131 for other autoimmune diseases. Naïve T cells isolated from female donor mice were transferred into SCID mice via IP injection. 3-5 weeks post transfer mice develop inflammation, an extended colon and epithelial hyperplasia. 24 hours post HS-131 tail vein injection mice were cryopreserved and imaged as previously mentioned. […] Experiments represent one mouse.
IBD Disease: On study day 0, Balb/C mice were terminated, and spleens obtained for CD4+CD45RBhigh cell isolation. After cells had been sorted and obtained, each animal received an IP injection of at a minimum 4×10^5 cells (200 μl/mouse injections). […]
CryoViz™ Imaging: Whole mice were imaged at 10.23 μm×10.23 μm in-plane resolution using an Olympus MVX-10 microscope with a 1X objective and 0.63× magnification and 40 μm section thickness, using the Cryo Viz™ (BioInVision, Inc., Cleveland, USA). CryoViz™ is a fully automated, serial sectioning-and-imaging system which provides 3-dimensional, tiled, microscopic anatomical bright field and molecular fluorescence images over large fields-of-view such as a whole mouse. Images were acquired using a dual band FITC/TxRed fluorescence filter (Chroma, Inc., Rockingham, VT), a liquid crystal RGB filter and a low-noise monochrome camera. […]

A further assay concerns Human CD3+ T cells. The assay can be described thus: Cytokine expression after anti-CD3/28 T cell stimulation with or without HS-131. The assay is classed as cell-based. Particulars: HS-131 1 μM, 24 hours, vs vehicle. The procedure: The data were analyzed by 2-way ANOVA with Sidak's multiple comparison test, * p<0.05, ** p<0.01. *** p<0.001. Experiments were performed with 6 biological replicates. […] Experiments were performed with 3 biological replicates for each timepoint. […] Experiments were performed with 3 biological replicates for each timepoint. […] Temporal upregulation of eHsp90 (green line) post T cell stimulation. CD25 expression: 6-8 biological replicates per time point. eHsp90 expression 6 biological replicates for each timepoint. […] Data represent mean ±SD. The data were analyzed by 2-way ANOVA with Sidaks multiple comparison test. Experiments were performed once with 3 biological replicates. […] Data represent mean ±SEM. […] Experiment was performed once with 4 biological replicates.
Next, the expression of eHsp90 and total Hsp90 over the course of T cell activation was tracked. Both total Hsp90 cellular content and eHsp90 expression in anti-CD3/28 stimulated human PBMCs were evaluated. […] Specifically, anti-CD3/28 stimulation caused eHsp90 up regulation in CD69+/CD25+ and CD69+/CD25− T-cell populations with a 5-8 fold increase within the first 24 hours post activation, whereas CD69−/CD25− T cells show no increase in probe or eHsp90 levels (see. FIG. 3B). […] One candidate client eHsp90 protein is CD25, the IL-2 receptor. […] Here it was observed that CD25 expression peaked at 72 hours post activation, followed by a reduction in expression thereafter which correlates with reduced eHsp90 expression (see. FIG. 3D). Due to the tight correlation of CD25 and eHsp90 expression, it further tested whether exogenous IL-2 stimulation could maintain high expression of both proteins in activated T cells 72-96 hours post-stimulation. […] Due to IL-2's ability to enhance eHsp90 expression in activated cells, the impacts of eHsp90 inhibition in activated T cells on inflammatory signaling were investigated. Human CD3+ T cells were stimulated with CD3/CD28 activating antibodies for 24 hours in the presence of HS-131. Compared to vehicle treated cells. […] IFNY (p<0.001). IL-17A (p<0.001). MIP-1a/B (p=0.013) and TNF a (p=0.025) (see. FIG. 3F).

Each structure is given as a SMILES string.

In the case of `Cc1nn(-c2ccc(C(N)=O)c(NCCCOCCOCCOCCOCCOCCCNCc3ccc(C(=C\C=C4\N(CCCCS(=O)(=O)[O-])c5ccccc5C4(C)C)/C=C/C4=[N+](CCCCS(=O)(=O)O)c5ccccc5C4(C)C)cc3)c2)c2c1C(=O)CC(C)(C)C2` [HS-131], the “uptake in joints or paws of IBD mouse” value in the assay with eHsp90 (24 hours post injection) is “no uptake”. In addition, the “fluorescence from the inflamed bowels of IBD mouse” value with eHsp90 (24 hours post injection (FIG. 7A)) was “extensive fluorescent signaling”. Further, in the assay on Human CD3+ T cells (p<0.001), the GM-CSF result was “significantly reduced”, the IFNY result is “significantly reduced” and the IL-17A result is “significantly reduced”. Further, the MIP-1a/B entry in the assay with Human CD3+ T cells (p=0.013) is “significantly reduced”. Also, the TNF a entry with Human CD3+ T cells (p=0.025) is given as “significantly reduced”.
